Laboratory results taken from patent publication US11787825B2 (priority 2021, dated 2023).
Values after ≈ are worked out from the molar mass of the structure shown. Like-named read-outs stand apart in the source and are kept apart here. Marks after values point to notes of the source that are not given here.

Assays:
[1] = Beagle, in vivo, po; for Dog F % (suspension): pH 2
physchem = settings: 25 °C, thermodynamic from solid
[2] = 0.1N HCL, 1.0% DMSO, 24-hour incubation at ambient temperature, maximum theoretical compound concentration 100 μM
[3] = 1×PBS buffer (pH 7.4), 1.0% DMSO, 24-hour incubation at ambient temperature, maximum theoretical compound concentration 100 μM
[4] = fasted state simulated intestinal fluid (FaSSIF), fassif
[5] = fed state simulated intestinal fluid (FeSSIF), fessif

CC(C)(C#Cc1ccc(-c2ccc(Cl)c3c(N(C(=O)CCCN(CCC(=O)O)C(=O)OCOP(=O)(O)O)S(C)(=O)=O)nn(CC(F)(F)F)c23)c([C@H](Cc2cc(F)cc(F)c2)NC(=O)Cn2nc(C(F)(F)F)c3c2C(F)(F)[C@@H]2C[C@H]32)n1)S(C)(=O)=O [Compound 31, 3-((4-(N-(4-chloro-7-(2-((S)-1-(2-((3bS,4aR)-5,5-difluoro-3-(trifluoromethyl)-3b,4,4a,5-tetrahydro-1H-cyclopropa[3,4]cyclopenta[1,2-c]pyrazol-1-yl)acetamido)-2-(3,5-difluorophenyl)ethyl)-6-(3-methyl-3-(methylsulfonyl)but-1-yn-1-yl)pyridin-3-yl)-1-(2,2,2-trifluoroethyl)-1H-indazol-3-yl)methylsulfonamido)-4-oxobutyl)(((phosphonooxy)methoxy)carbonyl)amino)propanoic acid]
pH 2 solubility [2]: 1 μM
pH 7 solubility [3]: 79 μM
Dog F % (suspension) [1]: 15%
solubility (physchem; [4]): 2930 µg/mL (≈ 2290 µM)
solubility (physchem; [5]): 902 µg/mL (≈ 705 µM)

CC(C)(Cc1ccccc1OP(=O)(O)O)C(=O)N(c1nn(CC(F)(F)F)c2c(-c3ccc(C#CC(C)(C)S(C)(=O)=O)nc3[C@H](Cc3cc(F)cc(F)c3)NC(=O)Cn3nc(C(F)(F)F)c4c3C(F)(F)[C@@H]3C[C@H]43)ccc(Cl)c12)S(C)(=O)=O [Compound 46, 2-(3-(N-(4-chloro-7-(2-((S)-1-(2-((3bS,4aR)-5,5-difluoro-3-(trifluoromethyl)-3b,4,4a,5-tetrahydro-1H-cyclopropa[3,4]cyclopenta[1,2-c]pyrazol-1-yl)acetamido)-2-(3,5-difluorophenyl)ethyl)-6-(3-methyl-3-(methylsulfonyl)but-1-yn-1-yl)pyridin-3-yl)-1-(2,2,2-trifluoroethyl)-1H-indazol-3-yl)methylsulfonamido)-2,2-dimethyl-3-oxopropyl)phenyl dihydrogen phosphate]
pH 2 solubility (pH 2): 1/66 μM
pH 7 solubility (pH 7.4): 1/66 μM
Dog F % (suspension) [1]: 10%
solubility (physchem; fassif): 700 µg/mL
solubility (physchem; fessif): > 2150 µg/mL

CN(C(=O)N(c1nn(CC(F)(F)F)c2c(-c3ccc(C#CC(C)(C)S(C)(=O)=O)nc3[C@H](Cc3cc(F)cc(F)c3)NC(=O)Cn3nc(C(F)(F)F)c4c3C(F)(F)[C@@H]3C[C@H]43)ccc(Cl)c12)S(C)(=O)=O)c1ncccc1COP(=O)(O)O [Compound 53, (2-(3-(4-chloro-7-(2-((S)-1-(2-((3bS,4aR)-5,5-difluoro-3-(trifluoromethyl)-3b,4,4a,5-tetrahydro-1H-cyclopropa[3,4]cyclopenta[1,2-c]pyrazol-1-yl)acetamido)-2-(3,5-difluorophenyl)ethyl)-6-(3-methyl-3-(methylsulfonyl)but-1-yn-1-yl)pyridin-3-yl)-1-(2,2,2-trifluoroethyl)-1H-indazol-3-yl)-1-methyl-3-(methylsulfonyl)ureido)pyridin-3-yl)methyl dihydrogen phosphate]
pH 2 solubility (pH 2): 2/78 μM
pH 7 solubility (pH 7.4): 2/78 μM
Dog F % (suspension) [1]: 5%
solubility (physchem; fassif): 391 µg/mL
solubility (physchem; fessif): 958 µg/mL

CN(C(=O)N(c1nn(CC(F)(F)F)c2c(-c3ccc(C#CC(C)(C)S(C)(=O)=O)nc3[C@H](Cc3cc(F)cc(F)c3)NC(=O)Cn3nc(C(F)(F)F)c4c3C(F)(F)[C@@H]3C[C@H]43)ccc(Cl)c12)S(C)(=O)=O)c1ncccc1CN(CC(=O)O)C(=O)OCOP(=O)(O)O [Compound 52, N-((2-(3-(4-chloro-7-(2-((S)-1-(2-((3bS,4aR)-5,5-difluoro-3-(trifluoromethyl)-3b,4,4a,5-tetrahydro-1H-cyclopropa[3,4]cyclopenta[1,2-c]pyrazol-1-yl)acetamido)-2-(3,5-difluorophenyl)ethyl)-6-(3-methyl-3-(methylsulfonyl)but-1-yn-1-yl)pyridin-3-yl)-1-(2,2,2-trifluoroethyl)-1H-indazol-3-yl)-1-methyl-3-(methylsulfonyl)ureido)pyridin-3-yl)methyl)-N-(((phosphonooxy)methoxy)carbonyl)glycine]
pH 2 solubility [2]: 2 μM
pH 7 solubility [3]: 100 μM
Dog F % (suspension) [1]: 24%
solubility (physchem; [4]): 1370 µg/mL (≈ 1020 µM)
solubility (physchem; [5]): > 6260 µg/mL

CC(C)(C#Cc1ccc(-c2ccc(Cl)c3c(N(C(=O)CCC(=O)OCOP(=O)(O)O)S(C)(=O)=O)nn(CC(F)(F)F)c23)c([C@H](Cc2cc(F)cc(F)c2)NC(=O)Cn2nc(C(F)(F)F)c3c2C(F)(F)[C@@H]2C[C@H]32)n1)S(C)(=O)=O [Compound 28, (phosphonooxy)methyl 4-(N-(4-chloro-7-(2-((S)-1-(2-((3bS,4aR)-5,5-difluoro-3-(trifluoromethyl)-3b,4,4a,5-tetrahydro-1H-cyclopropa[3,4]cyclopenta[1,2-c]pyrazol-1-yl)acetamido)-2-(3,5-difluorophenyl)ethyl)-6-(3-methyl-3-(methylsulfonyl)but-1-yn-1-yl)pyridin-3-yl)-1-(2,2,2-trifluoroethyl)-1H-indazol-3-yl)methylsulfonamido)-4-oxobutanoate]
pH 2 solubility [2]: 1 μM
pH 7 solubility [3]: 86 μM
Dog F % (solution) [1]: 51^b %
solubility (physchem; [4]): 555 µg/mL (≈ 471 µM)
solubility (physchem; [5]): 319 µg/mL (≈ 271 µM)

Cc1cc(CC(=O)O)c(C(C)(C)CC(=O)N(c2nn(CC(F)(F)F)c3c(-c4ccc(C#CC(C)(C)S(C)(=O)=O)nc4[C@H](Cc4cc(F)cc(F)c4)NC(=O)Cn4nc(C(F)(F)F)c5c4C(F)(F)[C@@H]4C[C@H]54)ccc(Cl)c23)S(C)(=O)=O)c(OP(=O)(O)O)c1 [Compound 44]
pH 2 solubility (pH 2): 1/100 μM
pH 7 solubility (pH 7.4): 1/100 μM
Dog F % (suspension) [1]: 27%
solubility (physchem; fassif): 2870 µg/mL (≈ 2210 µM)
solubility (physchem; fessif): 460 µg/mL (≈ 355 µM)

Cc1cc(C(=O)O)cc(OP(=O)(O)O)c1C(C)(C)CC(=O)N(c1nn(CC(F)(F)F)c2c(-c3ccc(C#CC(C)(C)S(C)(=O)=O)nc3[C@H](Cc3cc(F)cc(F)c3)NC(=O)Cn3nc(C(F)(F)F)c4c3C(F)(F)[C@@H]3C[C@H]43)ccc(Cl)c12)S(C)(=O)=O [Compound 49, 4-(4-(N-(4-chloro-7-(2-((S)-1-(2-((3bS,4aR)-5,5-difluoro-3-(trifluoromethyl)-3b,4,4a,5-tetrahydro-1H-cyclopropa[3,4]cyclopenta[1,2-c]pyrazol-1-yl)acetamido)-2-(3,5-difluorophenyl)ethyl)-6-(3-methyl-3-(methylsulfonyl)but-1-yn-1-yl)pyridin-3-yl)-1-(2,2,2-trifluoroethyl)-1H-indazol-3-yl)methylsulfonamido)-2-methyl-4-oxobutan-2-yl)-3-methyl-5-(phosphonooxy)benzoic acid]
pH 2 solubility (pH 2): 3/100 μM
pH 7 solubility (pH 7.4): 3/100 μM
Dog F % (suspension) [1]: 20%
solubility (physchem; fassif): 384 µg/mL (≈ 299 µM)
solubility (physchem; fessif): 390 µg/mL (≈ 304 µM)

CC(C)(C#Cc1ccc(-c2ccc(Cl)c3c(N(C(=O)CCCNC(=O)OCOP(=O)(O)O)S(C)(=O)=O)nn(CC(F)(F)F)c23)c([C@H](Cc2cc(F)cc(F)c2)NC(=O)Cn2nc(C(F)(F)F)c3c2C(F)(F)[C@@H]2C[C@H]32)n1)S(C)(=O)=O [Compound 33, (phosphonooxy)methyl (4-(N-(4-chloro-7-(2-((S)-1-(2-((3bS,4aR)-5,5-difluoro-3-(trifluoromethyl)-3b,4,4a,5-tetrahydro-111-cyclopropa[3,4]cyclopenta[1,2-c]pyrazol-1-yl)acetamido)-2-(3,5-difluorophenyl)ethyl)-6-(3-methyl-3-(methylsulfonyl)but-1-yn-1-yl)pyridin-3-yl)-1-(2,2,2-trifluoroethyl)-1H-indazol-3-yl)methylsulfonamido)-4-oxobutyl)carbamate]
pH 2 solubility [2]: 1 μM
pH 7 solubility [3]: 75 μM
Dog F % (solution) [1]: 33^b %
Dog F % (suspension) [1]: 17%
solubility (physchem; [4]): 326 µg/mL (≈ 270 µM)
solubility (physchem; [5]): 300 µg/mL (≈ 248 µM)

CN(C(=O)N(c1nn(CC(F)(F)F)c2c(-c3ccc(C#CC(C)(C)S(C)(=O)=O)nc3[C@H](Cc3cc(F)cc(F)c3)NC(=O)Cn3nc(C(F)(F)F)c4c3C(F)(F)[C@@H]3C[C@H]43)ccc(Cl)c12)S(C)(=O)=O)c1ncc(C(=O)O)cc1COP(=O)(O)O [Compound 62, 6-(3-(4-chloro-7-(2-((S)-1-(2-((3bS,4aR)-5,5-difluoro-3-(trifluoromethyl)-3b,4,4a,5-tetrahydro-1H-cyclopropa[3,4]cyclopenta[1,2-c]pyrazol-1-yl)acetamido)-2-(3,5-difluorophenyl)ethyl)-6-(3-methyl-3-(methylsulfonyl)but-1-yn-1-yl)pyridin-3-yl)-1-(2,2,2-trifluoroethyl)-1H-indazol-3-yl)-1-methyl-3-(methylsulfonyl)ureido)-5-((phosphonooxy)methyl)nicotinic acid]
pH 2 solubility [2]: 1 μM
pH 7 solubility [3]: 67 μM
Dog F % (solution) [1]: 8 ^c %
solubility (physchem; [4]): 490 µg/mL (≈ 390 µM)
